Assay results published in patent US9624246B2, “Pyridazinone macrocycles as IRAK inhibitors and uses thereof” (Merck Patent GmbH, priority 2015, dated 2017).
pIC50: −log10 of the molar value.

Assays:
[1] = biological target: human purified recombinant IRAK1 (His-TEV-IRAK1 (194-712)) (Homo sapiens (Human), UniProt P51617); test: IRAK1 enzymatic assay (ADP-Glo luminescence); type: biochemical; details: ATP 1 μM, 2 h at RT
Procedure: IRAK1 is a human purified recombinant enzyme (His-TEV-IRAK1 (194-712))
In this assay, IRAK1 hydrolyses ATP and autophosphorylates. Measurement of IRAK-1 inhibition is performed in 384-well format based on luminescence assay (ADP-Glo™ Kinase Assay from Promega). Purified human recombinant IRAK1 (0.3 μg/ml) and serial diluted compounds in DMSO (range of concentration from 10 μM to 0.5 nM) or controls (1% DMSO) are incubated for 15 minutes at RT in assay buffer containing 50 mM Hepes pH 7.0, Fatty acid-free BSA 0.1%, Dithiothreitol (DTT) 2 mM, MgCl2 10 mM, EGTA 0.5 mM, Triton X-100 0.01%. The kinase reaction is then initiated by the addition of ATP at a concentration of 1 μM. After 2 hours of incubation at RT, the reaction is stopped and the unconsumed ATP depleted by the addition of ADP-Glo™ Reagent according to supplier instructions. After 40 minutes of incubation at RT, the Kinase Detection Reagent is then added to the assay plate according to supplier instructions. After 20 minutes of incubation at RT, the luminescence signal is measured with a luminometer (PerkinElmer Envision or equivalent reader).

[2] = biological target: human purified recombinant IRAK4 (His-TEV-IRAK4 (1-460)) (Homo sapiens (Human), UniProt Q9NWZ3); test: IRAK4 enzymatic assay (ADP-Glo luminescence); type: biochemical; details: ATP 2 μM, STK1-biotin peptide 300 nM, 2 h at RT
human purified recombinant IRAK4 (His-TEV-IRAK4 (1-460)), sequence (Q9NWZ3 whole entry): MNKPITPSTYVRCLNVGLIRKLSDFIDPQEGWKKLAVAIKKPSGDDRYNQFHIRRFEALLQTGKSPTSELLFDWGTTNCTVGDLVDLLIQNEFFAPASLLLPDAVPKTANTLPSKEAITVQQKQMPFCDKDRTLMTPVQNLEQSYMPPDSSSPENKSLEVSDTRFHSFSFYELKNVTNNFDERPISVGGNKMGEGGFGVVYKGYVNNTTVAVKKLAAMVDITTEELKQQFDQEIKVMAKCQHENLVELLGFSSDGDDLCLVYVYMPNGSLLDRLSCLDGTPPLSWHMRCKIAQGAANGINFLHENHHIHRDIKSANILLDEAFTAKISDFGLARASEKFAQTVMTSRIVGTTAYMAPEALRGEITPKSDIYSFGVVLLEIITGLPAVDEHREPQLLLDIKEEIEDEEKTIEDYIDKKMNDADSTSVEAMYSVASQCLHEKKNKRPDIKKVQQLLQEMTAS
Procedure: IRAK4 is a human purified recombinant enzyme (His-TEV-IRAK4 (1-460)).
In this assay, IRAK4 hydrolyses ATP, autophosphorylates and phosphorylates a Serine/Threonine generic peptidic substrate (STK: 61ST1BLC from CisBio International). Measurement of IRAK-4 inhibition is performed in 384-well format based on a luminescence assay (ADP-Glo™ Kinase Assay from Promega). Purified human recombinant IRAK4 (0.3 μg/ml) and serial diluted compounds in DMSO (range of concentration from 10 μM to 0.5 nM) or controls (1% DMSO) are incubated for 15 minutes at RT in assay buffer containing 50 mM Hepes pH 7.0, Fatty acid-free BSA 0.1%, Dithiothreitol (DTT) 2 mM, MgCl2 10 mM, EGTA 0.5 mM, Triton X-100 0.01%, MnCl2 5 mM. The kinase reaction is then initiated by the addition of ATP (2 μM) and the peptidic substrate STK1-biotin peptide (300 nM). After 2 hours of incubation at RT, the reaction is stopped and the unconsumed ATP depleted by the addition of ADP-Glo™ Reagent according to supplier instructions. After 40 minutes of incubation at RT, the Kinase Detection Reagent is then added to the assay plate according to supplier instructions. After 20 minutes of incubation at RT, the luminescence signal is measured with a plate-reading luminometer (PerkinElmer Envision or equivalent reader).

human purified recombinant IRAK1 (His-TEV-IRAK1 (194-712)), sequence (P51617 194-712): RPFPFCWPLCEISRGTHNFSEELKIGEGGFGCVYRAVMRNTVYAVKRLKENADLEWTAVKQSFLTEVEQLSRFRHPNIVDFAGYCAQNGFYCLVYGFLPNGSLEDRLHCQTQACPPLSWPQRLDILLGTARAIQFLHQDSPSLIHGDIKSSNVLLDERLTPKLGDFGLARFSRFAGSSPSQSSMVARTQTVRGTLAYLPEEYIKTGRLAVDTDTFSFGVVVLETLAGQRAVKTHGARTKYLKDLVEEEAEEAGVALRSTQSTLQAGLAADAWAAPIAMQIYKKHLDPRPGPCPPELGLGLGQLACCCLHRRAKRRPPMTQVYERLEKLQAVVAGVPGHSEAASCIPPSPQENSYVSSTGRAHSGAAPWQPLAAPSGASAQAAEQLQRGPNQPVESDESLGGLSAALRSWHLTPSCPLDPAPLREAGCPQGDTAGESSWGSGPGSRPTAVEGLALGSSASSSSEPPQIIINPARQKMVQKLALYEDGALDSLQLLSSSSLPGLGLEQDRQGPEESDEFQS

Row | Structure (SMILES) | pIC50 [1] | pIC50 [2]
1 | Cn1cc2c(n1)C(=O)NCCCOc1ccc(=O)n(n1)Cc1cccc(c1)C(=O)N2 [Compound 1, 12-methyl-20-oxa-1,9,12,13,16,25-hexaazatetracyclo[19.3.1.1^3,70^10,14]hexacosa-3,5,7(26),10,13,21(25),22-heptaene-8,15,24-trione] | 6.00 to 7.00 | > 7.00
2 | Cn1cc2c(n1)C(=O)NCCn1cc(cn1)-c1ccc(=O)n(n1)Cc1cccc(c1)C(=O)N2 [Compound 2, 12-methyl-4,5,8,11,12,15,23,27-octaazapentacyclo[21.3.1.1^2,5.1^17,210^10,14]nonacosa-1(27),2(29) 3,10,13,17(28),18,20,25-nonaene-9,16,24-trione] | > 7.00 | > 7.00
3 | Cn1cc2c(n1)C(=O)NCc1cncc(c1)-c1ccc(=O)n(n1)Cc1cccc(c1)C(=O)N2 [Compound 3, 17-methyl-6,14,17,18,21,25,29-heptaazapentacyclo[21.3.1.1^2,61^8,12.0^15,19]nonacosa-1(27),2(29), 3,8,10,12(28),15,18,23,25-decaene-5,13,20-trione] | 6.00 to 7.00 | > 7.00
4 | Cn1cc2c(n1)C(=O)NCCOc1ccc(=O)n(n1)Cc1cccc(c1)C(=O)N2 [Compound 4, 12-methyl-19-oxa-1,9,12,13,16,24-hexaazatetracyclo[18.3.1.1^3,7.0^10,14]pentacosa-3,5,7(25),10,13,20(24),21-heptaene-8,15,23-trione] | < 5.30 | < 5.30
5 | O=C1Nc2cn(C3CCOCC3)nc2C(=O)NCCCOc2ccc(=O)n(n2)Cc2cccc1c2 [Compound 6, 12-(oxan-4-yl)-20-oxa-1,9,12,13,16,25-hexaazatetracyclo[19.3.1.1^3,7.0^10,14]hexacosa-3,5,7(26),10,13,21(25),22-heptaene-8,15,24-trione] | 6.00 to 7.00 | > 7.00
6 | CC(C)(C)n1cc2c(n1)C(=O)NCCCOc1ccc(=O)n(n1)Cc1cccc(c1)C(=O)N2 [Compound 7, 12-tert-butyl-20-oxa-1,9,12,13,16,25-hexaazatetracyclo[19.3.1.1^3,7.0^10,14]hexacosa-3,5,7(26),10,13,21(25),22-heptaene-8,15,24-trione] | 6.00 to 7.00 | > 7.00
7 | Cn1cc2c(n1)C(=O)NCCCOc1ccc(=O)n(n1)Cc1cccc(n1)C(=O)N2 [Compound 8, 12-methyl-20-oxa-1,9,12,13,16,25,26-heptaazatetracyclo[19.3.1.1^3,70^10,14]hexacosa-3,5,7(26),10,13,21(25),22-heptaene-8,15,24-trione] | < 5.30 | > 7.00
8 | O=C1Nc2cn(C3CCOCC3)nc2C(=O)NCCCOc2ccc(=O)n(n2)Cc2cccc1n2 [Compound 9, 12-(oxan-4-yl)-20-oxa-1,9,12,13,16,25,26-heptaazatetracyclo[19.3.1.1^3,7.0^10,14]hexacosa-3,5,7(26),10,13,21(25),22-heptaene-8,15,24-trione] | < 5.30 | > 7.00
9 | CC(C)(C)n1cc2c(n1)C(=O)NCCCOc1ccc(=O)n(n1)Cc1cccc(n1)C(=O)N2 [Compound 10, 12-tert-butyl-20-oxa-1,9,12,13,16,25,26-heptaazatetracyclo[19.3.1.1^3,7.0^10,14]hexacosa-3,5,7(26),10,13,21(25),22-heptaene-8,15,24-trione] | – | 5.30 to 6.00
10 | O=C1Nc2cn(C3CCOCC3)nc2C(=O)NCC(O)COc2ccc(=O)n(n2)Cc2cccc1c2 (stereo not drawn) [Compound 11, 18-hydroxy-12-(oxan-4-yl)-20-oxa-1,9,12,13,16,25-hexaazatetracyclo[19.3.1.1^3,7.0^10,14]hexacoa-3,5,7(26),10,13,21(25),22-heptaene-8,15,24-trione] | 6.00 to 7.00 | > 7.00
11 | Cn1cc2c(n1)C(=O)NCC(O)COc1ccc(=O)n(n1)Cc1cccc(c1)C(=O)N2 (stereo not drawn) [Compound 12, 18-hydroxy-12-methyl-20-oxa-1,9,12,13,16,25-hexaazatetracyclo[19.3.1.1^3,7.0^10,14]hexacosa-3,5,7(26),10,13,21(25),22-heptaene-8,15,24-trione] | 5.30 to 6.00 | > 7.00
12 | Cn1cc2c(n1)C(=O)NCc1cc(ccn1)-c1ccc(=O)n(n1)Cc1cccc(c1)C(=O)N2 [Compound 13, 17-methyl-6,14,17,18,21,24,29-heptaazapentacyclo[21.3.1.1^2,6.1^8,12.0^15,19]nonacosa-1(27),2(29),3,8,10,12(28),15,18,23,25-decaene-5,13,20-trione] | 6.00 to 7.00 | > 7.00
13 | Cn1cc2c(n1)C(=O)NCCc1cccc(c1)-c1ccc(=O)n(n1)Cc1cccc(c1)C(=O)N2 [Compound 14, 17-methyl-6,14,17,18,21,30-hexaazapentacyclo[22.3.1.1^2,6.1^8,12.0^15,19]triaconta-1(28),2(30),3,8,10,12(29),15,18,24,26-decaene-5,13,20-trione] | 6.00 to 7.00 | > 7.00
14 | Cc1cc2n(n1)CCc1cccc(c1)-c1ccc(=O)n(n1)Cc1cccc(c1)C(=O)N2 [Compound 15, 17-methyl-6,14,18,19,28-pentaazapentacyclo[20.3.1.1^2,6.1^8,12.0^15,19]octacosa-1(26),2(28),3,8,10,12(27)15,17,22,24-decaene-5,13-dione] | < 5.30 | < 5.30
